Assay results: patent publication US8778899B2, “Methods of inducing regulated pancreatic hormone production in non-pancreatic islet tissues” (priority 1999, dated 2014)

Key:
adult human liver cells = assay: Glucose challenge assay; type: cell-based; details: 0-25 mM, 2 hours
Procedure: Adult liver cells were treated with Ad-CMV-PDX-1 and growth factors for 5 days. The cells were plated in 6-well plates at 10^5 cells per well.
For time course analysis the cells were preincubated for 2 hours in Krebs-Ringer buffer (KRB) containing 0.1% BSA, followed by incubation for the indicated period in media containing 2 mM or 25 mM glucose. At each time point media samples were analyzed for insulin (Ultra Sensitive Human Insulin RIA kit—Linco Research) and C-peptide secretion (Human C-Peptide RIA kit—Linco Research).
Glucose dose response; Cells were preincubated for 2 hours with KRB containing 0.1% BSA, washed and challenged thereafter with increasing concentrations of D-Glucose or 2-deoxy-Glucose (0-25 mM) for 2 hours. At the end of the incubation period at 25 mM glucose, the cells were washed with KRB and incubated for additional 2 hours in 2 mM glucose containing media.

human liver cells = assay: Quantitative real-time RT-PCR gene expression in human liver cells; type: cell-based; details: without PDX-1
Procedure: Liver cells were cultured in Dulbecco's minimal essential medium (1 gr/L glucose) with or without growth factors as indicated separately (EGF 20 ng/ml, Cytolab Ltd.; Nicotinamide 10 mM, Sigma), and were infected by recombinant adenoviruses (500 moi) for 5 days. The recombinant adenoviruses used in this study: Ad-RIP-GFP-CMV-PDX-1, Ad-CMV-PDX-1, Ad-CMV-hIns^40, Ad-CMV-GFP (Clontech, BD Biosciences).
Alternatively, quantitative real-time RT-PCR, was performed using ABI Prism 7000 sequence Detection system (Applied Biosystems).
Amplification conditions included initiation at 50° C. for 2 minutes, denaturation at 95° C. for 10 minutes, followed by 40 cycles, each cycle included denaturation at 95° C. for 15 seconds and annealing at 60° C. for 1 minute, using the TaqMan PCR Master Mix (Applied Biosystems). Relative quantitative analysis was according to ABI prism 7000 SDS software, using the 2^(−ΔCt) equation. The mRNA levels were corrected for human β-actin mRNA.

Compound	C-peptide secretion in transdifferentiated liver cells (adult human liver cells)	PDX-1 independent effect on pancreatic gene expression (human liver cells)
O=CC[C@@H](O)[C@H](O)[C@H](O)CO [2-DOG, 2-deoxy-glucose]	did not trigger C-peptide secretion	–
NC(=O)c1cccnc1 [nicotinamide]	–	Neither nicotinamide nor EGF alone or their combination exhibited PDX-1 independent effect
EGF: epidermal growth factor, soluble factor added to liver cell cultures (NSDSECPLSHDGYCLHDGVCMYIEALDKYACNCVVGYIGERCQYRDLKWWELR; UniProt P01133 971-1023, looked up)	–	Neither nicotinamide nor EGF alone or their combination exhibited PDX-1 independent effect
